Laboratory results published in patent US5945436A, “Pyridylmethyl nitriles, amides and thioamides useful as fungicides” (Uniroyal Chemical Company, Inc., priority 1997, dated 1999).

Key:
Erysiphe graminis [1] = test: Powdery mildew of barley, systemic root uptake (BMS); type: in vivo; details: 45 ml of 250 mg/l, 8 days after inoculation
Experimental: (§1) Compositions containing Compounds Nos. 1-81 were prepared by dissolving 0.24 grams of each of the compounds in 8 ml of acetone or other suitable inert solvent. Each of the resultant solutions was treated with 3 drops of TWEEN 20 (ethoxylated ethylene sorbitan monolaurate, a non-ionic surfactant)(I.C.I.), and water was added to form an emulsion. The degree of dilution with water was dictated by the desired concentration of the compound in the composition. The greater the quantity of water added, the lower the concentration of the compound in the composition, reported in milligrams per liter (mg/l) […] Upon reaching these ages, the plants were either treated with 45 ml of 250 mg/l concentration of the compositions of Example 9 or were left untreated. The untreated plants were used as controls. The 45 ml compositions saturated the soil of the treated pots without significant loss through drainage into the saucers below the pots. Twenty-four hours after the treatment with the compositions, both the barley and cucumber plants in all the pots, those treated and those untreated, were inoculated with powdery mildew fungus. This was accomplished by tapping leaves of previously infected barley and cucumber plants over the treated and untreated pots containing the barley and cucumber plants, respectively, to distribute spores of the fungus over the plants tested. […] Intermediate ratings were assigned depending on the degree of disease. […] The results of the powdery mildew disease control of barley are reported under the heading of "BMS". The results for cucumber mildew control are reported under the heading "CMS".

Erysiphe cichoracearum = test: Powdery mildew of cucumber, systemic root uptake (CMS); type: in vivo; details: 45 ml of 250 mg/l, 8 days after inoculation
Experimental: as §1

Erysiphe graminis [2] = test: Powdery mildew in barley, foliar application (ERY GRA); type: in vivo; details: Blumeria graminis, foliar, 192 h, foliar, 1,000 mg/l, 8 days after inoculation, read-out: Percent Reduction of Disease, ERY GRA
Experimental: Compositions containing Compounds Nos. 1-81 were prepared by dissolving 0.24 grams of each of the compounds in 8 ml of acetone or other suitable inert solvent. Each of the resultant solutions was treated with 3 drops of TWEEN 20 (ethoxylated ethylene sorbitan monolaurate, a non-ionic surfactant)(I.C.I.), and water was added to form an emulsion. The degree of dilution with water was dictated by the desired concentration of the compound in the composition. The greater the quantity of water added, the lower the concentration of the compound in the composition, reported in milligrams per liter (mg/l) Ten plants of "Robust" variety barley were planted in each of a plurality of pots. Each pot was then either sprayed with one of the compositions of Example 9, at a composition concentration of 1,000 mg/l, or left unsprayed. For each pot sprayed, one pot was left unsprayed as a control. After the leaves of the sprayed pots were dried, the sprayed pots and the unsprayed control pots were placed in a greenhouse maintained at 21° C. All the pots were then inoculated with barley powdery mildew fungus, Erysiphe graminis. This inoculation was accomplished by distributing spores of the fungus over the leaves of the plants to be tested from plants which had previously been infected with the mildew disease. […] Again, percent control was computed by comparing the treatment scores with the scores of the untreated controls. The results are summarized in Table II under the heading "ERY GRA".

Helminthosporium sativum = test: Barley spot blotch, foliar treatment (HEL SAT); type: in vivo; details: Helminthosporium, foliar, 216 h, foliar, 1,000 mg/l, read-out: Percent Reduction of Disease, HEL SAT
Experimental: Compositions containing Compounds Nos. 1-81 were prepared by dissolving 0.24 grams of each of the compounds in 8 ml of acetone or other suitable inert solvent. Each of the resultant solutions was treated with 3 drops of TWEEN 20 (ethoxylated ethylene sorbitan monolaurate, a non-ionic surfactant)(I.C.I.), and water was added to form an emulsion. The degree of dilution with water was dictated by the desired concentration of the compound in the composition. The greater the quantity of water added, the lower the concentration of the compound in the composition, reported in milligrams per liter (mg/l) Ten plants of six day-old Barley (variety "Robust") were planted in each of a plurality of pots. Each pot was then either sprayed with one of the compositions of Example 9, at a concentration of 1,000 mg/l, or left unsprayed. The unsprayed plants were used as controls. An equal number of pots were sprayed and unsprayed. All plants, sprayed and unsprayed, were thereafter inoculated with spores of the blotch fungus Helminthosporium sativum. All inoculated plants were placed in a 99% humidity chamber for 24 hours and then placed in a greenhouse, maintained at a temperature of 21° C., for eight days. […] Percent control was computed and the results are summarized in Table II under the heading "HEL SAT".

[3] = test system: Cercosporidium personatum; test: Fungal germination and growth, treated disc on agar, scored (CER PER); type: cell-based; design: key: 100: Complete inhibition of germination and growth.; 80: Nearly complete inhibition but some growth.; 50: Partial inhibition of growth or, early complete inhibition but later growth begins.; 20: Some inhibition of growth, but not significant.; 0: No inhibition of growth; details: disc dipped in 500 mg/l, 29° C., numerical score 0-100, spore suspension
Source text: Filter paper discs, each 11 mm. in diameter, were dipped in each of the test solutions. The discs were allowed to air dry to drive off the acetone solvent. A number of untreated discs were used as controls. The treated and untreated discs were then placed on agar plates and one of the following fungus species: Septoria nodorum (SEP NOD), Botrytis cinerea (BOT CIN), Fusarium oxysporum (FUS OXY), Pythium ultimum ([…]), Rhizoctonia solani (RHI SOL), Colletotrichum gossypii (COL GOS), and Scierotinia minor (SCL MIN), was added to the center of each disc in the form of a culture plug with the fungus mat in contact with the paper of the test disc. Cercosporidium personatum (CER PER), was added to discs as a spore suspension (20,000 spores/ml) to the disc (two drops of spore suspension per disc), rather than a mycelial culture plug. The plates were then incubated at 29° C. in an oven. In the case of the Cercosporidium personatum (CER PER) fungi, scoring was done on a numerical basis as follows: 100=Complete inhibition of germination and growth. 80=Nearly complete inhibition but some growth. 50=Partial inhibition of growth or, early complete inhibition but later growth begins. 20=Some inhibition of growth, but not significant. 0=No inhibition of growth. The results of all the above tests appear in Table III below under the headings "SEP NOD," "BOT CIN," "FUS OXY," "[…]" "COL GOS" and "CER PER".

Scierotinia minor = test: Fungal growth inhibition, treated disc on agar (SCL MIN); type: cell-based; details: disc dipped in 500 mg/l, 29° C., read-out: Percent Growth Inhibition, SCL MIN
Experimental: The treated and untreated discs were then placed on agar plates and one of the following fungus species: Septoria nodorum (SEP NOD), Botrytis cinerea (BOT CIN), Fusarium oxysporum (FUS OXY), Pythium ultimum (PYT ULT), Rhizoctonia solani (RHI SOL), Colletotrichum gossypii (COL GOS), and Scierotinia minor (SCL MIN), was added to the center of each disc in the form of a culture plug with the fungus mat in contact with the paper of the test disc. Cercosporidium personatum (CER PER), was added to discs as a spore suspension (20,000 spores/ml) to the disc (two drops of spore suspension per disc), rather than a mycelial culture plug. The plates were then incubated at 29° C. in an oven.
With the exception of the discs containing Cercosporidium personatum, the discs were evaluated by first measuring the radius from the center of the fungus colony on the treated discs and on the untreated discs. Percent growth inhibition of each of the compounds tested was determined as a function of the difference between the radius of the fungus colony on the treated disc versus the radius of the fungus colony on the untreated disc.

Rhizoctonia solani = test: Fungal growth inhibition, treated disc on agar (RHI SOL); type: cell-based; details: Rhizoctonia solani, disc dipped in 500 mg/l, 29° C., read-out: Percent Growth Inhibition, RHI SOL
Botrytis cinerea = test: Fungal growth inhibition, treated disc on agar (BOT CIN); type: cell-based; details: Botrytis cinerea, disc dipped in 500 mg/l, 29° C., read-out: Percent Growth Inhibition, BOT CIN
Fusarium oxysporum = test: Fungal growth inhibition, treated disc on agar (FUS OXY); type: cell-based; details: Fusarium oxysporum, disc dipped in 500 mg/l, 29° C., read-out: Percent Growth Inhibition, FUS OXY

SMILES	Percent Reduction of Disease, BMS (Erysiphe graminis [1])	Percent Reduction of Disease, CMS (Erysiphe cichoracearum)	pest or weed control at 1000 µg/mL (Erysiphe graminis [2])	pest or weed control at 1000 µg/mL (Helminthosporium sativum)	CER PER inhibition score [3]	inhibition at 500 µg/mL (Scierotinia minor)	inhibition at 500 µg/mL (Rhizoctonia solani)	inhibition at 500 µg/mL (Botrytis cinerea)	inhibition at 500 µg/mL (Fusarium oxysporum)
COCC(C#N)(CCc1ccccc1)c1cccnc1 (stereo not shown) [Compound 6]	100%	100%	70%	100%	0	100%	50%	100%	93%
CC(C)CC(C#N)(CCc1ccccc1)c1cccnc1 (stereo not shown) [Compound 7]	35%	20%	100%	70%	0	10%	94%	100%	100%
CC(C)=CCC(C#N)(CCc1ccccc1)c1cccnc1 (stereo not shown) [Compound 8]	45%	0%	100%	100%	80	100%	45%	40%	0%
C=CCC(C#N)(CCc1ccc(F)cc1)c1cccnc1 (stereo not drawn) [Compound 9, 4-fluoro-α-(2-propenyl)-α-(3-pyridinyl)benzenebutanenitrile]	40%	74%	100%	85%	100	98%	95%	100%	100%
CCCC(C#N)(CCc1ccc(F)cc1)c1cccnc1 (stereo not shown) [Compound 10]	84%	88%	100%	100%	100	100%	96%	98%	97%
CCCCC(C#N)(CCc1ccc(C)cc1)c1cccnc1 (stereo not shown) [Compound 34]	0%	20%	100%	100%	0	100%		100%	100%
Cc1ccc(CCC(C#N)(CCCF)c2cccnc2)cc1 (stereo not shown) [Compound 81]	0%	0%	70%		0	0%	5%	30%	20%
